From patent US20250230193A1, “CYCLIC COMPOUND HAVING SELECTIVE KRAS INHIBITORY EFFECT ON HRAS AND NRAS” (CHUGAI SEIYAKU KABUSHIKI KAISHA, priority 2022, published 2025)

How the values were obtained:
[1] = biological target: GDP-bound NRAS wild-type protein (Homo sapiens, UniProt P01111); test: Binding to NRAS by surface plasmon resonance (SPR), Single Cycle Kinetics; details: SPR, GDP-bound NRAS wild-type vs GDP-bound KRAS wild-type
[2] = biological target: GDP-bound HRAS wild-type protein (Homo sapiens, UniProt P01112); test: Binding to HRAS by surface plasmon resonance (SPR), Single Cycle Kinetics; details: SPR, GDP-bound HRAS wild-type vs GDP-bound KRAS wild-type
Sequence of GDP-bound HRAS wild-type protein (P01112 whole entry): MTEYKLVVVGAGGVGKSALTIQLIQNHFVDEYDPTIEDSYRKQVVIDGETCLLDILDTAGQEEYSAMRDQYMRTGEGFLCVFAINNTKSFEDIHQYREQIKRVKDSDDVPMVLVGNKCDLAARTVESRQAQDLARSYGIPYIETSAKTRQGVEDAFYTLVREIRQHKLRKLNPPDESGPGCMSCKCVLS

Sequence of GDP-bound NRAS wild-type protein (P01111 whole entry): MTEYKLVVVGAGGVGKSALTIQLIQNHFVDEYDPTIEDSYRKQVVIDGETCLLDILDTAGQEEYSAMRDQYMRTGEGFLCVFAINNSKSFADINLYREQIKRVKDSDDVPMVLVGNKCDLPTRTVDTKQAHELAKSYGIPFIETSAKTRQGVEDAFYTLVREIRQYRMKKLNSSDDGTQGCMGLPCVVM

| Structure (SMILES) | NRAS/KRAS (ratio of KD value with respect to NRAS to KD value with respect to KRAS) [1] | HRAS/KRAS (ratio of KD value with respect to HRAS to KD value with respect to KRAS) [2] |
| --- | --- | --- |
| CCO[C@@H]1C[C@H]2C(=O)NC3(CC(C)(C)C3)C(=O)N(C)[C@@H](C(CC)CC)C(=O)N(C)[C@H](C(=O)N(C)C)CC(=O)N(C)[C@@H](CC3CC3)C(=O)N[C@@H]([C@@H](C)CC)C(=O)N(C)CC(=O)N(C)[C@H]3C/C=C\CCN(C3=O)[C@@H](Cc3ccc(C(F)(F)F)cc3)C(=O)N(C)CC(=O)N[C@@H](CCc3ccc(C(F)(F)F)c(OC)c3)C(=O)N2C1 [PP2155] | A (a compound having 10 or more and less than 20 is denoted as A) | B (a compound having 3 or more and less than 10 is denoted as B) |
| CCO[C@@H]1C[C@H]2C(=O)NC3(CC(C)(C)C3)C(=O)N(C)[C@@H](C(CC)CC)C(=O)N(C)[C@H](C(=O)N(C)C)CC(=O)N(C)[C@@H](CC3CCC3)C(=O)N[C@@H]([C@@H](C)CC)C(=O)N(C)CC(=O)N(C)[C@H]3C/C=C\CCN(C3=O)[C@@H](Cc3ccc(C)cc3)C(=O)N(C)CC(=O)N[C@@H](CCc3ccc(C(F)(F)F)c(Cl)c3)C(=O)N2C1 [PP2156] | AA (a compound having 20 or more is denoted as AA) | A (a compound having 10 or more and less than 20 is denoted as A) |
| CCO[C@@H]1C[C@H]2C(=O)NC3(CC(C)(C)C3)C(=O)N(C)[C@@H](C(CC)CC)C(=O)N(C)[C@H](C(=O)N(C)C)CC(=O)N(C)[C@@H](COC)C(=O)N[C@@H]([C@@H](C)CC)C(=O)N(C)CC(=O)N(C)[C@H]3C/C=C\CCN(C3=O)[C@@H](Cc3ccc(C(F)(F)F)cc3)C(=O)N(C)CC(=O)N[C@@H](CCc3ccc(C(F)(F)F)c(OC)c3)C(=O)N2C1 [PP2157] | A (a compound having 10 or more and less than 20 is denoted as A) | A (a compound having 10 or more and less than 20 is denoted as A) |
| CCO[C@@H]1C[C@H]2C(=O)NC3(CC(C)(C)C3)C(=O)N(C)[C@@H](C(CC)CC)C(=O)N(C)[C@H](C(=O)N(C)C)CC(=O)N(C)[C@@H](C(C)C)C(=O)N[C@@H]([C@@H](C)CC)C(=O)N(C)CC(=O)N(C)[C@H]3C/C=C\CCN(C3=O)[C@@H](Cc3ccc(C)cc3)C(=O)N(C)CC(=O)N[C@@H](CCc3ccc(C(F)(F)F)c(Cl)c3)C(=O)N2C1 [PP2158] | AA (a compound having 20 or more is denoted as AA) | A (a compound having 10 or more and less than 20 is denoted as A) |
| CCO[C@@H]1C[C@H]2C(=O)NC3(CC(C)(C)C3)C(=O)N(C)[C@@H](C(CC)CC)C(=O)N(C)[C@H](C(=O)N3CCCC3)CC(=O)N(C)[C@@H](COC)C(=O)N[C@@H]([C@@H](C)CC)C(=O)N(C)CC(=O)N(C)[C@H]3C/C=C\CCN(C3=O)[C@@H](Cc3ccc(C(F)(F)F)cc3)C(=O)N(C)CC(=O)N[C@@H](CCc3ccc(C(F)(F)F)c(OC)c3)C(=O)N2C1 [PP2159] | AA (a compound having 20 or more is denoted as AA) | A (a compound having 10 or more and less than 20 is denoted as A) |
| CCC[C@H]1C(=O)N[C@@H]([C@@H](C)CC)C(=O)N(C)CC(=O)N(C)[C@H]2C/C=C\CCN(C2=O)[C@@H](Cc2ccc(C(F)(F)F)cc2)C(=O)N(C)CC(=O)N[C@@H](CCc2ccc(C(F)(F)F)c(OC)c2)C(=O)N2C[C@H](OCC)C[C@H]2C(=O)NC2(CC(C)(C)C2)C(=O)N(C)[C@@H](C(CC)CC)C(=O)N(C)[C@H](C(=O)N(C)C)CC(=O)N1C [PP2160] | A (a compound having 10 or more and less than 20 is denoted as A) | A (a compound having 10 or more and less than 20 is denoted as A) |
| CCO[C@@H]1C[C@H]2C(=O)NC3(CC(C)(C)C3)C(=O)N(C)[C@@H](C(CC)CC)C(=O)N(C)[C@H](C(=O)N(C)C)CC(=O)N(C)[C@@H](CC(C)C)C(=O)N[C@@H]([C@@H](C)CC)C(=O)N(C)CC(=O)N(C)[C@H]3C/C=C\CCN(C3=O)[C@@H](Cc3ccc(C(F)(F)F)cc3)C(=O)N(C)CC(=O)N[C@@H](CCc3ccc(C(F)(F)F)c(OC)c3)C(=O)N2C1 [PP2161] | AA (a compound having 20 or more is denoted as AA) | A (a compound having 10 or more and less than 20 is denoted as A) |
| CCO[C@@H]1C[C@H]2C(=O)NC3(CC(C)(C)C3)C(=O)N(C)[C@@H](C(CC)CC)C(=O)N(C)[C@H](C(=O)N3CCCC3)CC(=O)N(C)[C@@H](C)C(=O)N[C@@H]([C@@H](C)CC)C(=O)N(C)CC(=O)N(C)[C@H]3C/C=C\CCN(C3=O)[C@@H](Cc3ccc(C(F)(F)F)cc3)C(=O)N(C)CC(=O)N[C@@H](CCc3ccc(C(F)(F)F)c(OC)c3)C(=O)N2C1 [PP2163] | A (a compound having 10 or more and less than 20 is denoted as A) | A (a compound having 10 or more and less than 20 is denoted as A) |
| CCO[C@@H]1C[C@H]2C(=O)NC3(CC(C)(C)C3)C(=O)N(C)[C@@H](C(CC)CC)C(=O)N(C)[C@H](C(=O)N(C)C)CC(=O)N(C)[C@@H](CC3CCC3)C(=O)N[C@@H]([C@@H](C)CC)C(=O)N(C)CC(=O)N(C)[C@H]3C/C=C\CCN(C3=O)[C@@H](Cc3ccc(C(F)(F)F)cc3)C(=O)N(C)CC(=O)N[C@@H](CCc3ccc(C(F)(F)F)c(OC)c3)C(=O)N2C1 [PP2164] | A (a compound having 10 or more and less than 20 is denoted as A) | A (a compound having 10 or more and less than 20 is denoted as A) |
| CCO[C@@H]1C[C@H]2C(=O)NC3(CC(C)(C)C3)C(=O)N(C)[C@@H](C(CC)CC)C(=O)N(C)[C@H](C(=O)N(C)C)CC(=O)N(C)[C@@H](C(C)C)C(=O)N[C@@H]([C@@H](C)CC)C(=O)N(C)CC(=O)N(C)[C@H]3C/C=C\CCN(C3=O)[C@@H](Cc3ccc(C(F)(F)F)cc3)C(=O)N(C)CC(=O)N[C@@H](CCc3ccc(C(F)(F)F)c(OC)c3)C(=O)N2C1 [PP2165] | A (a compound having 10 or more and less than 20 is denoted as A) | A (a compound having 10 or more and less than 20 is denoted as A) |
| CCO[C@@H]1C[C@H]2C(=O)NC3(CC(C)(C)C3)C(=O)N(C)[C@@H](C(CC)CC)C(=O)N(C)[C@H](C(=O)N(C)C)CC(=O)N(C)[C@@H](CC3CC3)C(=O)N[C@@H]([C@@H](C)CC)C(=O)N(C)CC(=O)N(C)[C@H]3C/C=C\CCN(C3=O)[C@@H](Cc3ccc(C)cc3)C(=O)N(C)CC(=O)N[C@@H](CCc3ccc(C(F)(F)F)c(OC)c3)C(=O)N2C1 [PP2166] | A (a compound having 10 or more and less than 20 is denoted as A) | A (a compound having 10 or more and less than 20 is denoted as A) |
| CCO[C@@H]1C[C@H]2C(=O)NC3(CC(C)(C)C3)C(=O)N(C)[C@@H](C(CC)CC)C(=O)N(C)[C@H](C(=O)N3CCCC3)CC(=O)N(C)[C@@H](COC)C(=O)N[C@@H]([C@@H](C)CC)C(=O)N(C)CC(=O)N(C)[C@H]3C/C=C\CCN(C3=O)[C@@H](Cc3ccc(C)cc3)C(=O)N(C)CC(=O)N[C@@H](CCc3ccc(C(F)(F)F)c(OC)c3)C(=O)N2C1 [PP2167] | AA (a compound having 20 or more is denoted as AA) | A (a compound having 10 or more and less than 20 is denoted as A) |
| CCO[C@@H]1C[C@H]2C(=O)NC3(CC(C)(C)C3)C(=O)N(C)[C@@H](C(CC)CC)C(=O)N(C)[C@H](C(=O)N(C)C)CC(=O)N(C)[C@@H](CC(C)C)C(=O)N[C@@H]([C@@H](C)CC)C(=O)N(C)CC(=O)N(C)[C@H]3C/C=C\CCN(C3=O)[C@@H](Cc3ccc(C)cc3)C(=O)N(C)CC(=O)N[C@@H](CCc3ccc(C(F)(F)F)c(OC)c3)C(=O)N2C1 [PP2168] | A (a compound having 10 or more and less than 20 is denoted as A) | A (a compound having 10 or more and less than 20 is denoted as A) |
| CCO[C@@H]1C[C@H]2C(=O)NC3(CC(C)(C)C3)C(=O)N(C)[C@@H](C(CC)CC)C(=O)N(C)[C@H](C(=O)N3CCCC3)CC(=O)N(C)[C@@H](C)C(=O)N[C@@H]([C@@H](C)CC)C(=O)N(C)CC(=O)N(C)[C@H]3C/C=C\CCN(C3=O)[C@@H](Cc3ccc(C)cc3)C(=O)N(C)CC(=O)N[C@@H](CCc3ccc(C(F)(F)F)c(OC)c3)C(=O)N2C1 [PP2169] | AA (a compound having 20 or more is denoted as AA) | A (a compound having 10 or more and less than 20 is denoted as A) |
| CCO[C@@H]1C[C@H]2C(=O)NC3(CC(C)(C)C3)C(=O)N(C)[C@@H](C(CC)CC)C(=O)N(C)[C@H](C(=O)N(C)C)CC(=O)N(C)[C@@H](CC)C(=O)N[C@@H]([C@@H](C)CC)C(=O)N(C)CC(=O)N(C)[C@H]3C/C=C\CCN(C3=O)[C@@H](Cc3ccc(C)cc3)C(=O)N(C)CC(=O)N[C@@H](CCc3ccc(C(F)(F)F)c(OC)c3)C(=O)N2C1 [PP2170] | A (a compound having 10 or more and less than 20 is denoted as A) | A (a compound having 10 or more and less than 20 is denoted as A) |
| CCO[C@@H]1C[C@H]2C(=O)NC3(CC(C)(C)C3)C(=O)N(C)[C@@H](C(CC)CC)C(=O)N(C)[C@H](C(=O)N3CCCC3)CC(=O)N(C)[C@@H](CC)C(=O)N[C@@H]([C@@H](C)CC)C(=O)N(C)CC(=O)N(C)[C@H]3C/C=C\CCN(C3=O)[C@@H](Cc3ccc(C)cc3)C(=O)N(C)CC(=O)N[C@@H](CCc3ccc(C(F)(F)F)c(OC)c3)C(=O)N2C1 [PP2171] | A (a compound having 10 or more and less than 20 is denoted as A) | A (a compound having 10 or more and less than 20 is denoted as A) |
